Reference: patent US20240293327A1, “MONOLITHIC TABLETS BASED ON CARBOXYL POLYMERIC COMPLEXES FOR CONTROLLED DRUG RELEASE” (MATRIPHARM INTERNATIONAL INC., priority 2014, published 2024)
Counter-ions that a name gives are not always drawn.

What was measured:
[1] = Beagle dog, oral, 500 mg, 1 dose
[2] = in vivo; conditions: male, beagle, dog, plasma, po, 500 mg
[3] = cited from earlier work

Row | Ke (terminal elimination rate per hour) [1] [h⁻¹] | AUC(0-inf) [2] [ng·h/mL] | AUC(0-t) [2] [ng·h/mL] | Cmax [2] [ng/mL] | MRT [2] [h] | Tmax [2] [h] | SMILES | Time to complete absorption after administration ([3]; estimated) [h] | Absorbed in the remaining part of (lower) intestine tract ([3]; in vivo) | Recovered in faeces ([3]; in vivo)
1 | 0.157 | 81200 | 77900 | 12400 | 8.02 | 1.3 | CN(C)C(=N)N=C(N)N [Metformin (Matrix-free), metformin hydrochloride] | – | – | –
2 | – | – | – | – | – | – | CN(C)C(=N)N=C(N)N [Metformin] | ≤ 6 | about 40% | up to 30%
